A word on the melting point: it is the temperature of the solid-liquid transition.

Molecules are shown by their SMILES.

Regarding `CCCCCCCCC1(COc2ccc(N)cc2)CCc2c(C)c(OC(C)=O)c(C)c(C)c2O1` (stereo unspecified), the melting point lay in the range of 112 to 114 °C.
With `Cc1ccc(C)n1Nc1nnc(N2CCOCC2)c2ccccc12` the figure was 255 to 260 °C; with `N#Cc1ccc(C(=O)NC(=S)NC2CC2)cc1`, 151 to 152 °C.
Turning to `O=C1CCc2ccc(Oc3ccc(CN4CCN(c5cccc(Cl)c5Cl)CC4)cc3)cc2N1`, the melting point fell in the range of 185 to 186 °C.
With `COc1ccc2cc([C@H](C)C(=O)OCC(=O)N3CCC(CCO[N+](=O)[O-])CC3)ccc2c1` the figure was 83 to 85 °C; with `COc1cc(C(=O)CCN(C)C)cc(OC)c1OC`, 45 to 47 °C; with `CC(=O)c1cccc2c1ccn2C`, 63 to 64 °C.
With `Cc1ccc(-c2c(-c3ccc(S(N)(=O)=O)cc3)cnn(-c3ccc(F)cc3)c2=O)cc1F` the figure was 187 to 188 °C; with `CC(C)(C)Oc1ccc2cc(C=O)ccc2c1`, 51 to 52 °C; with `FC1(F)Oc2cccc(-c3n[nH]cc3I)c2O1`, 142 °C.
`O=C(COc1cc(-c2ccc(Cl)cc2)nc2ccccc12)N1CCOCC1` returned a melting point of 191 °C.
`CCOC(=O)c1nc2c(Cl)nc3cc(C(F)(F)F)ccc3n2c1CBr` had a melting point of 196 to 198 °C.
With `CCOC(=O)C(C(=O)Nc1cc(OC)c(OC)c(OC)c1)(c1ccccc1)c1ccccc1`, the melting point lay in the range of 109 to 111 °C.
`O=S(=O)(c1ccccc1)c1c[nH]c2ccc(N3CCN(Cc4ccccc4)CC3)nc12` came in with a melting point of 238 to 239 °C.
On to `O=C(O)COc1cc(Cl)ccc1C(=O)NCc1cccc(F)c1`, for which the melting point was determined as 155 °C.
With `CNC(=O)C1=CC(CF)(CF)Oc2ccc([N+](=O)[O-])cc21` the figure was 178 to 179 °C; with `Cc1cc(C)cc(-c2[nH]c3ccc(C(C)(C)C(=O)O)cc3c2CCN(CCCCc2ccc(NS(C)(=O)=O)cc2)C(=O)OCc2ccccc2)c1`, > 102 °C.
`O=C(O)c1nn(-c2ccccc2)c2c1C(N1CCOCC1)c1ccccc1-2` (stereo unspecified) registered a melting point of 244 to 245 °C.
Next, `CCOc1cc(-n2c(=O)cc(C(F)(F)F)[nH]c2=O)c(F)cc1Br`: 161 to 162 °C; `Nc1ccc(C(=O)OCCOC(=O)C[C@@H](C(=O)O)n2c3ccccc3c3ccccc32)cc1`: 100 °C.
Next, `CCOc1cc(CO)ccc1OCCBr`: 51 to 53 °C; `CC(C)(C)OC(=O)N[C@@H](Cc1ccccc1)C(=O)N[C@@H](Cc1ccc(O)c(I)c1)C(=O)OCc1ccccc1`: 81.6 to 82.7 °C.
Next, `CCOC(=O)c1ccc2cnccc2n1`: 106 to 108 °C; `COc1ccc(C(C)(C)C)c(O)c1C(=O)Nc1ccc(S(=O)(=O)C(F)(F)F)cc1Cl`: 198 to 199 °C.
Compound `NS(=O)(=O)c1ccc(-n2nc(C(F)F)cc2-c2nc3ccc(Cl)cc3s2)cc1` gave a melting point of 242 to 244 °C.
With `COc1ccc(C=CC(=O)Nc2cnc3cc(C)c(C)cc3c2-c2ccccc2Cl)cc1OC` the figure was 210 to 211 °C; with `O=C(C1CCCCO1)N1CCNCC1` (stereo unspecified), 53 to 58 °C; with `CC(C)=CCCC(C)=CCOc1ccc(C(=O)NCC(=O)Nc2ccccn2)cc1`, 105 to 106 °C.
With `O=Cc1c[nH]c2ccc(C(F)(F)F)cc12` the figure was 242 to 243 °C; with `Cc1cc(C(=O)c2ccc(C(=O)c3cc(C)c(OCC4CO4)c(C)c3)cc2)cc(C)c1OCC1CO1` (stereo unspecified), 164 to 170 °C.
With `CCOC(=O)c1cn(C)nc1NCc1ccc(-c2ccccc2C#N)cc1` the figure was 151 to 152 °C; with `C(=C\c1nc(COc2ccc(CCCn3cnc(-c4ccccc4)c3-c3ccccc3)cc2)co1)/c1ccccc1`, 137 to 138 °C.
`COC(=O)[C@H](Cc1ccc([N+](=O)[O-])cc1)NC(=O)C1(CCCCS(C)(=O)=O)CCCC1` registered a melting point of 40 to 44 °C.
Next, `CCOc1nn(-c2ccccc2Cl)c(=O)o1`: 45 °C; `COc1ccc(Oc2c(Cl)cc([N+](=O)[O-])cc2Cl)cc1C(C)C`: 75 to 77 °C.
`Cc1c(-c2ccc(C=CC(=O)OC(C)(C)C)cc2)nc2n1CCc1ccccc1C2OC1CCN(C)CC1` (stereo unspecified) displayed a melting point of 185 °C.
Next, `CC(c1oc2ccccc2c(=O)c1-c1cccc(F)c1)n1ccc2ncnc(Cl)c21` (stereo unspecified): 166 to 168 °C.
With `CNC(=O)CCC(O)c1ccccc1` (stereo unspecified) the figure was 67 to 69 °C.
With `CCN(Cc1cc(C(C)=O)ccc1NC(C)=O)C1CCCCC1` the figure was 98 to 100 °C; with `COC(=O)C(c1ccccc1Cl)C1CNc2sc(OC(=O)c3ccc([N+](=O)[O-])cc3)cc2C1` (stereo unspecified), 100 to 102 °C; with `Nc1nc(O)c2c(n1)NCC(CCc1ccc(C(=O)N[C@@H](CCC(=O)O)C(=O)O)[nH]1)C2` (stereo partly specified), > 260 °C.
Compound `CCCCCCCCNC(=O)/C=C\SC(=O)c1cc(Cl)cc(Cl)c1` returned a melting point of 99 to 102 °C.
Next, `O=C(Cc1ccccc1)Nc1ccc(CN2C(=O)[C@H]3CCC[C@H]3N(C(=O)CN3C(=O)c4ccccc4C3=O)c3ccccc32)cc1` (relative stereo): 143 to 145 °C; `FC1(F)c2ccccc2C(F)(F)C(F)(F)c2ccccc21`: 53 to 55 °C.
With `COc1ccccc1Cc1cccc(-c2ncc3c(n2)CC(C)(C)CC3)n1` the figure was 251 to 252 °C.
With `CC1CCC2C(=O)N(NC(=O)CCc3cc(C(C)(C)C)c(O)c(C(C)(C)C)c3)C(=O)C2C1` (stereo unspecified) the figure was 87 to 92 °C; with `COC(=O)CN1CCc2[nH]c(=O)n3nc(-c4ccccc4F)nc3c2C1`, 265 to 266 °C.
`N#Cc1cccc(CC(NC(=O)c2cc3cc(Cl)ccc3[nH]2)C(=O)N2CCSC2)c1` (stereo unspecified) had a melting point of 183 to 184 °C.
In turn, `Cc1ccccc1-n1c(C=Cc2ccccc2F)nc2ccsc2c1=O` showed a melting point of 220 to 221 °C.
With `Cc1nnc(COc2ccc(NC(=O)/C=C/c3cnn(C)c3-c3ccc(F)cc3)cc2)o1`, the melting point was 117 to 118 °C.
Next, `CC#CC(C)(C)NC(=O)C(CC)Oc1ccc2ncc(Cl)cc2c1` (stereo unspecified): 105 to 107 °C.
As to `COc1c(C)cc(-c2[nH]c3ccc(NS(=O)(=O)c4ccc(C)cc4)cc3c2C)cc1C`, the melting point lay in the range of 192 to 194 °C.
Next, `COC(=O)c1c[nH]c(C=Cc2cnc3nc(NC(=O)C(C)(C)C)nc(O)c3c2)c1`: > 260 °C; `Oc1cncc(Oc2ccccc2)c1`: 107 °C.
With `O=C1c2ccccc2-c2nn(CCO)c3ccc(NCCNCCO)c1c23` the figure was 209 to 211 °C; with `O=C(O)Cn1cc(Cc2nc3c(F)c(F)cc(F)c3s2)c2ccc(-c3ccccc3)cc21`, 156 to 159 °C.
Next, `Cc1oc(-c2ccc(C(F)(F)F)cc2)nc1COc1cc(F)cc(CN(O)C(N)=O)c1`: 156 to 157 °C; `CCc1[nH]c2cccc3c2c1CC1C3CC(NC(=O)N(CC)CC)CN1C` (stereo unspecified): 165 to 168 °C; `CN1CCN(C(=O)c2ccc(-c3cnc4c(c3)N(C(=O)c3cc(F)ccc3F)CCN4)cc2)CC1`: 201 to 203 °C.
Take `Cn1c(NC2CCNC(Cc3ccccc3)C2)nc2ccccc21` (stereo unspecified): the melting point amounted to 86.3 °C.
`CC(C)(O)Cn1c(CON=C2CCCC2)nc2c(N)nc3cccnc3c21` showed a melting point of 195 to 197 °C.
With `Cn1cc([C@H]2CC[C@@H](N3CCN(c4cc(C=O)cc5cccnc45)CC3)CC2)c2cc(C#N)ccc21` the figure was 172 to 174 °C; with `C[C@@H](n1cnn(-c2ccc(OCC(F)(F)C(F)(F)F)cc2)c1=O)[C@@]1(c2ccc(F)cc2F)CO1`, 128 to 129 °C; with `CC1(C)OC(=S)Nc2ccc(-c3ccc(F)cc3)cc21`, 221 to 223 °C.
With `COc1nc(C)nc(OC)c1N1CCCn2c1nc1c(Cl)ccc(C(O)(C3CC3)C3CC3)c12` the figure was 204 to 205 °C; with `CCn1c(C)nc2cc(C(F)(F)F)cc(N)c21`, 144 to 145 °C; with `NNC(=O)c1cnn(-c2ccc(NN)nn2)c1N`, 302 to 305 °C.
With `COc1cc(-c2ccsc2)cc2oc(=O)c(C)c(C)c12` the figure was 158 to 160 °C; with `CC(C)(C)OC(=O)N(CCOc1cccc2[nH]ccc12)Cc1ccccc1`, 46 to 48 °C; with `O=C=Nc1cc(OC(=O)Oc2cc(N=C=O)c(F)cc2Cl)c(Cl)cc1F`, 108 to 109 °C.
As for `CC(C)(C)OC(=O)c1ccc2[nH]ccc2c1`, the melting point lay in the range of 91 to 93 °C.
Next, `CCCOCCOC(=O)C(=O)Nc1nc(-c2ccccc2)cs1`: 94 to 96 °C; `CNc1nc(Cc2ccc(OC)c(OC)c2)nc2sc(C#N)c(C)c12`: 161 to 163 °C; `CCOC(=O)c1[nH]c(C)c(CC)c1CC`: 76 to 77 °C.
Next, `CCOC(=O)C1CCCN(C(=O)/C=C/c2ccc(Sc3ccc4c(c3)OCCO4)c([N+](=O)[O-])c2)C1` (stereo unspecified): 73 to 75 °C.
With `CCCCCCCCCCCCOCC1CN(c2cc3c(cc2F)c(=O)c(C(=O)O)cn3CC)CCN1C` (stereo unspecified) the figure was 166 to 168 °C.
As for `Cc1ccc(-c2nc(C)c(C)c(Cl)n2)cc1`, the melting point is 165 °C.
With `CN(c1cccc2cc(-c3nc(CCC(=O)O)cs3)[nH]c12)S(=O)(=O)c1cccs1` the figure was 200 to 201 °C; with `CCN(CC)CCOc1ccc(NC(=O)C#Cc2ccc(C(F)(F)F)cc2Cl)cc1N`, 127 to 130 °C; with `COc1c(C)c(C)c(OC)c(CN2C(=O)C3CCCC3=Nc3ccccc32)c1C` (stereo unspecified), 202 to 204 °C.
Next, `CC(C)(C)OC(=O)N[C@H]1CNC1=O`: 173 to 175 °C; `CCCCCCC(=O)c1ccc(OCCN2CCN(c3cc(Cl)nnc3Cl)CC2)cc1`: 113 to 115 °C; `Nc1cc(=O)[nH]c2ccccc12`: > 250 °C.
As for `CCOC(=O)c1cnc2c(cnn2-c2ccccc2)c1O`, the melting point fell in the range of 149 to 150 °C.
Next, `Cc1oc2c(C)c(C)c(NC(=O)c3ccccc3)c(C)c2c1-c1ccc(C(C)C)cc1`: 225 to 227 °C.
With `ICCOc1ccc(C2=C(c3ccccc3)CCCc3ccccc32)cc1` the figure was 154 to 156 °C.

For the origin of these results see a melting point compilation (Tetko et al.; mined from patent text by program, amines drawn as free bases though some values may be those of a salt).
